Laboratory results as given in patent US8168592B2 (Amgen Inc., priority 2005, dated 2012).
Square brackets hold non-standard residues; d marks the D form. Peptide text beside a SMILES is read from it. Oic = O=C(O)[C@@H]1C[C@@H]2CCCC[C@@H]2N1; 1Nal = N[C@@H](Cc1cccc2ccccc12)C(=O)O; 2Nal = N[C@@H](Cc1ccc2ccccc2c1)C(=O)O; hArg = N=C(N)NCCCC[C@H](N)C(=O)O; Tic = O=C(O)[C@@H]1Cc2ccccc2CN1; Cit = NC(=O)NCCC[C@H](N)C(=O)O

target: T1, CGRP1 receptor (Homo sapiens, UniProt O60894+Q16602); experiment: in vitro CGRP1 receptor mediated cAMP assay in SK-N-MC cells; format: cell-based; conditions: Table 2A; read-out: IC50
T1 construct: SK-N-MC cells express CRLR and RAMP1, which form CGRP1 receptor; endogenous in cells; host or cells: SK-N-MC human neuroblastoma cells
Protocol: The in vitro cAMP assay employed a human neuroblastoma-derived cell line (SK-N-MC). SK-N-MC cells express CRLR and RAMP1, which form CGRP1 receptor. CGRP1 receptor is a G-protein coupled receptor linked to the stimulatory G-protein, Gs. […] Briefly, two days before the assay, the cells were plated in 96-well plates in growth medium. On the day of the assay cells were rinsed with PBS followed by the addition of 60 μl of plasma free medium for 15 minutes at room temperature. […] The medium was then removed and the cells were lysed with 100 μl lysis buffer for 30 minutes at 37° C. for 30 minutes. Using a Tropix ELISA kit (Applied Biosystems, Foster City, Calif.), a cAMP-AP conjugate was diluted (1:100) and added (30 μl) to each well of a 96-well ELISA plate. An aliquot of the lysis buffer from the cell plate was then added to the ELISA plate followed by an aliquot of the cAMP antibody. This mixture was incubated for 1 hour at room temperature with gentle shaking. The ELISA plate was then washed 6× with wash buffer followed by the additions of a substrate enhancer. This mixture was incubated for 30 minutes at room temperature and then read on a MicroBeta Jet or EnVision plate reader. The results were analyzed using Prism (GraphPad).

T1 sequence (Q16602 23-461): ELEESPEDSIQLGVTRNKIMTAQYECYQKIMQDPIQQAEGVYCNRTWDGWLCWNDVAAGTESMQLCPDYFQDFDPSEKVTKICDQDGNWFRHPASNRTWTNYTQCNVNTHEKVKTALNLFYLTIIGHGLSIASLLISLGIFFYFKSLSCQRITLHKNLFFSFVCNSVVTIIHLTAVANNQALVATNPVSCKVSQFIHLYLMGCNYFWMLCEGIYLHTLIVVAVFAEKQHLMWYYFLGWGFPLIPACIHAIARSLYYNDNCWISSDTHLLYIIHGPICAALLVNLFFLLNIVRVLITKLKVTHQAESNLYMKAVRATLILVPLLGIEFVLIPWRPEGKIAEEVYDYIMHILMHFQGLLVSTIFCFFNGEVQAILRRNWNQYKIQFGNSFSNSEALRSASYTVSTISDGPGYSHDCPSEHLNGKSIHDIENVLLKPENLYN
T1 sequence (O60894 27-148): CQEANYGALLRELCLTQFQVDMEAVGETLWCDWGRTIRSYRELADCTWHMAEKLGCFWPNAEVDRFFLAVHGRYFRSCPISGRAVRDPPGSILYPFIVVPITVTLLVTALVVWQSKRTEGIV

IC50 [nM] | Compound
2.66 | CC(=O)N[C@@H](Cc1c[nH]c2ccccc12)C(=O)N[C@H](C(=O)N[C@H](C(=O)N[C@@H](Cc1c[nH]cn1)C(=O)N[C@@H](CCCNC(N)=O)C(=O)N[C@@H](CC(C)C)C(=O)N[C@@H](C)C(=O)NCC(=O)N[C@@H](CC(C)C)C(=O)N[C@@H](CC(C)C)C(=O)N[C@@H](CO)C(=O)N[C@@H](CCCNC(N)=O)C(=O)N[C@@H](CO)C(=O)NCC(=O)NCC(=O)N[C@H](C(=O)N[C@H](C(=O)N[C@@H](CCCCNC(=N)N)C(=O)N[C@@H](CCCCN)C(=O)N[C@@H](CC(N)=O)C(=O)N[C@@H](Cc1ccc2ccccc2c1)C(=O)N[C@H](C(=O)N1CCC[C@H]1C(=O)N[C@H](C(=O)N[C@@H](CC(=O)O)C(=O)N[C@H](C(=O)NCC(=O)N1[C@H](C(=O)N[C@@H](Cc2ccccc2)C(=O)N[C@@H](C)C(=O)N[C@@H](Cc2ccccc2)C(N)=O)C[C@@H]2CCCC[C@@H]21)C(C)C)[C@@H](C)O)C(C)C)C(C)C)C(C)C)[C@@H](C)O)C(C)C [compound 137] (Ac-WVTH[Cit]LAGLLS[Cit]SGGVV[hArg]KN[2Nal]VPTDVG[Oic]FAF-NH2)
3.45 | CC(=O)N[C@@H](Cc1c[nH]c2ccccc12)C(=O)N[C@H](C(=O)N[C@H](C(=O)N[C@@H](Cc1c[nH]cn1)C(=O)N[C@@H](CCCNC(N)=O)C(=O)N[C@@H](CC(C)C)C(=O)N[C@@H](C)C(=O)NCC(=O)N[C@@H](CC(C)C)C(=O)N[C@@H](CC(C)C)C(=O)N[C@@H](CO)C(=O)N[C@@H](CCCNC(N)=O)C(=O)N[C@@H](CO)C(=O)NCC(=O)NCC(=O)N[C@H](C(=O)N[C@H](C(=O)N[C@@H](CCCCNC(=N)N)C(=O)N[C@@H](CCCCN)C(=O)N[C@@H](CC(N)=O)C(=O)N[C@@H](Cc1ccc2ccccc2c1)C(=O)N[C@H](C(=O)N1CCC[C@H]1C(=O)N[C@H](C(=O)N[C@@H](CC(=O)O)C(=O)N[C@H](C(=O)NCC(=O)N1[C@H](C(=O)N[C@@H](Cc2ccccc2)C(=O)N[C@@H](C)C(=O)N[C@@H](Cc2ccc3ccccc3c2)C(N)=O)C[C@@H]2CCCC[C@@H]21)C(C)C)[C@@H](C)O)C(C)C)C(C)C)C(C)C)[C@@H](C)O)C(C)C [compound 138] (Ac-WVTH[Cit]LAGLLS[Cit]SGGVV[hArg]KN[2Nal]VPTDVG[Oic]FA[2Nal]-NH2)
3.57 | CC(=O)N[C@@H](Cc1c[nH]c2ccccc12)C(=O)N[C@H](C(=O)N[C@H](C(=O)N[C@@H](Cc1c[nH]cn1)C(=O)N[C@@H](CCCNC(N)=O)C(=O)N[C@@H](CC(C)C)C(=O)N[C@@H](C)C(=O)NCC(=O)N[C@@H](CC(C)C)C(=O)N[C@@H](CC(C)C)C(=O)N[C@@H](CO)C(=O)N[C@@H](CCCNC(N)=O)C(=O)N[C@@H](CO)C(=O)NCC(=O)NCC(=O)N[C@H](C(=O)N[C@H](C(=O)N[C@@H](CCCCNC(=N)N)C(=O)N[C@@H](CCCCN)C(=O)N[C@@H](CC(N)=O)C(=O)N[C@@H](Cc1ccc2ccccc2c1)C(=O)N[C@H](C(=O)N1[C@H](C(=O)N[C@H](C(=O)N[C@@H](CC(=O)O)C(=O)N[C@H](C(=O)NCC(=O)N2[C@H](C(=O)N[C@@H](Cc3ccccc3)C(=O)N[C@@H](C)C(=O)N[C@@H](Cc3ccc4ccccc4c3)C(N)=O)C[C@@H]3CCCC[C@@H]32)C(C)C)[C@@H](C)O)C[C@@H]2CCCC[C@@H]21)C(C)C)C(C)C)C(C)C)[C@@H](C)O)C(C)C [compound 139] (Ac-WVTH[Cit]LAGLLS[Cit]SGGVV[hArg]KN[2Nal]V[Oic]TDVG[Oic]FA[2Nal]-NH2)
2.24 | CC(=O)N[C@@H](Cc1c[nH]c2ccccc12)C(=O)N[C@H](C(=O)N[C@H](C(=O)N[C@@H](Cc1c[nH]cn1)C(=O)N[C@@H](CCCNC(N)=O)C(=O)N[C@@H](CC(C)C)C(=O)N[C@@H](C)C(=O)NCC(=O)N[C@@H](CC(C)C)C(=O)N[C@@H](CC(C)C)C(=O)N[C@@H](CO)C(=O)N[C@@H](CCCNC(N)=O)C(=O)N[C@@H](CO)C(=O)NCC(=O)NCC(=O)N[C@H](C(=O)N[C@H](C(=O)N[C@@H](CCCCNC(=N)N)C(=O)N[C@@H](CCCCN)C(=O)N[C@@H](CC(N)=O)C(=O)N[C@@H](Cc1ccccc1)C(=O)N[C@H](C(=O)N1CCC[C@H]1C(=O)N[C@H](C(=O)N[C@@H](CC(=O)O)C(=O)N[C@H](C(=O)NCC(=O)N1CCC[C@H]1C(=O)N[C@@H](Cc1cccc2ccccc12)C(=O)N[C@@H](C)C(=O)N[C@@H](Cc1ccccc1)C(N)=O)C(C)C)[C@@H](C)O)C(C)C)C(C)C)C(C)C)[C@@H](C)O)C(C)C [compound 144] (Ac-WVTH[Cit]LAGLLS[Cit]SGGVV[hArg]KNFVPTDVGP[1Nal]AF-NH2)
10.1 | CC(=O)N[C@@H](Cc1c[nH]c2ccccc12)C(=O)N[C@H](C(=O)N[C@H](C(=O)N[C@@H](Cc1c[nH]cn1)C(=O)N[C@@H](CCCNC(N)=O)C(=O)N[C@@H](CC(C)C)C(=O)N[C@@H](C)C(=O)NCC(=O)N[C@@H](CC(C)C)C(=O)N[C@@H](CC(C)C)C(=O)N[C@@H](CO)C(=O)N[C@@H](CCCNC(N)=O)C(=O)N[C@@H](CO)C(=O)NCC(=O)NCC(=O)N[C@H](C(=O)N[C@H](C(=O)N[C@@H](CCCNC(=N)N)C(=O)N[C@@H](CCCCN)C(=O)N[C@@H](CC(N)=O)C(=O)N[C@@H](Cc1ccccc1)C(=O)N[C@H](C(=O)N1CCC[C@H]1C(=O)N[C@H](C(=O)N[C@@H](CC(=O)O)C(=O)N[C@H](C(=O)NCC(=O)N1CCC[C@H]1C(=O)N1Cc2ccccc2C[C@H]1C(=O)N[C@@H](C)C(=O)N[C@@H](Cc1ccccc1)C(N)=O)C(C)C)[C@@H](C)O)C(C)C)C(C)C)C(C)C)[C@@H](C)O)C(C)C [compound 146] (Ac-WVTH[Cit]LAGLLS[Cit]SGGVVRKNFVPTDVGP[Tic]AF-NH2)
3.22 | CC(=O)N[C@@H](Cc1c[nH]c2ccccc12)C(=O)N[C@H](C(=O)N[C@H](C(=O)N[C@@H](Cc1cnc[nH]1)C(=O)N[C@@H](CCCNC(N)=O)C(=O)N[C@@H](CC(C)C)C(=O)N[C@@H](C)C(=O)NCC(=O)N[C@@H](CC(C)C)C(=O)N[C@@H](CC(C)C)C(=O)N[C@@H](CO)C(=O)N[C@@H](CCCNC(N)=O)C(=O)N[C@@H](CO)C(=O)NCC(=O)NCC(=O)N[C@H](C(=O)N[C@H](C(=O)N[C@@H](CCCCNC(=N)N)C(=O)N[C@@H](CCCCN)C(=O)N[C@@H](CC(N)=O)C(=O)N[C@@H](Cc1ccccc1)C(=O)N[C@H](C(=O)N1CCC[C@H]1C(=O)N[C@H](C(=O)N[C@@H](CC(=O)O)C(=O)N[C@H](C(=O)NCC(=O)N1CCC[C@H]1C(=O)N[C@@H](Cc1ccccc1)C(=O)N[C@@H](C)C(=O)N[C@@H](Cc1ccccc1)C(N)=O)C(C)C)[C@@H](C)O)C(C)C)C(C)C)C(C)C)[C@@H](C)O)C(C)C [compound 653]
> 1000 | CC(=O)N[C@H](C(=O)N[C@H](C(=O)N[C@H](C(=O)N[C@H](C(=O)N[C@@H](Cc1c[nH]cn1)C(=O)N[C@@H](CCCNC(N)=O)C(=O)N[C@@H](CC(C)C)C(=O)N[C@@H](C)C(=O)NCC(=O)N[C@@H](CC(C)C)C(=O)N[C@@H](CC(C)C)C(=O)N[C@@H](CO)C(=O)N[C@@H](CCCNC(N)=O)C(=O)N[C@@H](CO)C(=O)NCC(=O)NCC(=O)N[C@H](C(=O)N[C@H](C(=O)N[C@@H](CCCCNC(=N)N)C(=O)N[C@@H](CCCCN)C(=O)N[C@@H](CC(N)=O)C(=O)N[C@@H](Cc1ccccc1)C(=O)N[C@H](C(=O)N1CCC[C@H]1C(=O)N[C@H](C(=O)N[C@@H](CC(=O)O)C(=O)N[C@H](C(=O)NCC(=O)N1CCC[C@H]1C(=O)N[C@@H](Cc1ccccc1)C(=O)N[C@@H](C)C(N)=O)C(C)C)[C@@H](C)O)C(C)C)C(C)C)C(C)C)[C@@H](C)O)C(C)C)C(C)C)C(C)C [compound 654] (Ac-VVVTH[Cit]LAGLLS[Cit]SGGVV[hArg]KNFVPTDVGPFA-NH2)
